For 16 compounds, EC50 results are on record in US12440496B2, “Natriuretic peptide receptor a agonists useful for the treatment of cardiometabolic diseases, kidney disease and diabetes” (Merck Sharp & Dohme LLC, priority 2019, dated 2025).

Molecules are shown by their SMILES. Structures can show the parent of a compound that is named as a salt.

For orientation: EC50 means the concentration at which the effect is half-maximal.

This test addresses T1, hNPRA (Homo sapiens, UniProt P16066).
T1 construct: expressed in transfected cells
T1 sequence (P16066 33-1061): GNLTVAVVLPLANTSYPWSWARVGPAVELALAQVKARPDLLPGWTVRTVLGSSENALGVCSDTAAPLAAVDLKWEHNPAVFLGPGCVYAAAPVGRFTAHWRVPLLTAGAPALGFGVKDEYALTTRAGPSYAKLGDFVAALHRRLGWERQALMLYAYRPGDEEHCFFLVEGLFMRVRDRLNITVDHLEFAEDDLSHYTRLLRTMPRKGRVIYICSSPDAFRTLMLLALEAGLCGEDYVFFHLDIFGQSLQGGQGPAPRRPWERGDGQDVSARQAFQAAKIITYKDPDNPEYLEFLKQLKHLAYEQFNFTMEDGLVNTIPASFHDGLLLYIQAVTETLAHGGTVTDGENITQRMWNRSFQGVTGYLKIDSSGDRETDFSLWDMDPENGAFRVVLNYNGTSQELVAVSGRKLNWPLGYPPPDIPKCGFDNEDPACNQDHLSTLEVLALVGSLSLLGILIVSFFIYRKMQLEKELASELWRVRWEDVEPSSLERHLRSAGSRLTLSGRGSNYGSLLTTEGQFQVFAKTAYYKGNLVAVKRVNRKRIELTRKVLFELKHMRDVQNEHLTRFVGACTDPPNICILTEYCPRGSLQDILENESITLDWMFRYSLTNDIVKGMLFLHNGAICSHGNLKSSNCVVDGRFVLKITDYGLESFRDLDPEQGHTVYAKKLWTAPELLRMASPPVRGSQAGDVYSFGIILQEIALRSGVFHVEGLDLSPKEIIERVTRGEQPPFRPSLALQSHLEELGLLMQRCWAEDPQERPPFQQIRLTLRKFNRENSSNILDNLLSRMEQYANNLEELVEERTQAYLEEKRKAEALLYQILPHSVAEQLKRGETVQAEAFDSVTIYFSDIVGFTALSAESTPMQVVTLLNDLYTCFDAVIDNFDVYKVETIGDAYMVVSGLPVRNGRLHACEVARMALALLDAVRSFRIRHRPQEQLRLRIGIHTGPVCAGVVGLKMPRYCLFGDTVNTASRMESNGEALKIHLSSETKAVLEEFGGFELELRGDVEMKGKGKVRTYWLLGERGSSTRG
Description: NPRA Functional Cell Assay (cGMP HTRF, NPRA HEK JumpIn stable cells). To be noted: cGMP production, 1 hour at 37° C., 10-point dose response. Format: cell-based. In outline: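 cGMP HTRF read-out after 1 hour compound treatment at 37° C. of human NPRA-expressing HEK JumpIn cells, 1500 cells/well, in buffer with phosphodiesterase inhibitors IBMX and RO20 (100 uM each). Signal converted to [cGMP] by calibration curve; EC50s fitted by 4-parameter logistic; 50 nM h-ANP as positive response.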
Background: Time-resolved FRET reads energy transfer from a long-lived donor to a nearby acceptor.
Regarding `CC(C)(C)[C@H]1CCc2nc3sc(C(=O)N[C@H](CCN4CCC(O)C4)c4ccc(-c5ccc(=O)[nH]c5)cc4)nc3cc2C1` (mixture of isomers) [Example 78, rac-(7S)-7-tert-butyl-N-[rac-(1R)-3-(3-hydroxypyrrolidin-1-yl)-1-[4-(6-oxo-1H-pyridin-3-yl)phenyl]propyl]-5,6,7,8-tetrahydrothiazolo[5,4-b]quinoline-2-carboxamide], the half-maximal effective concentration (EC50) came to 692 nM.

In the case of `CN(C)CC[C@@H](NC(=O)c1nc2cc3c(nc2s1)CC[C@H](C(C)(C)C)C3)c1cccc(C(=O)NC2CCN(CC(F)(F)F)C2)c1` (mixture of isomers) [Example 100, rac-(7S)-7-tert-butyl-N-[rac-(1R)-3-(dimethyl-amino)-1-[3-[[1-(2,2,2-trifluoroethyl)pyrrolidin-3-yl]carbamoyl]phenyl]propyl]-5,6,7,8-tetrahydrothiazolo[5,4-b] quinoline-2-carboxamide], the response was half-maximal at 2000 nM (EC50). For the compound `CN(C)S(=O)(=O)Nc1cccc([C@@H](CCN2CCC(O)CC2)NC(=O)c2nc3cc4c(nc3s2)CC[C@H](C(C)(C)C)C4)c1` (mixture of isomers) [Example 216, (7S)-7-tert-butyl-N-[rac-(1R)-1-[3-(dimethylsulfamoylamino)phenyl]-3-(4-hydroxypiperidin-1-ium-1-yl)propyl]-5,6,7,8-tetrahydrothiazolo[5,4-b]quinoline-2-carboxamide; formate], the EC50 amounted to 1980 nM. The compound `CC(C)(C)[C@H]1CCc2nc3sc(C(=O)N[C@H](CCN4CCC(C(=O)O)CC4)c4cccc(C(=O)NC5CCN(C6CC6)C5)c4)nc3cc2C1` (mixture of isomers) [Example 124, 1-[rac-(3R)-3-[3-[(1-cyclopropylpyrrolidin-3-yl)carbamoyl]phenyl]-3-[[rac-(7S)-7-tert-butyl-5,6,7,8-tetrahydrothiazolo [5,4-b]quinoline-2-carbonyl]amino]propyl]piper idin-1-ium-4-carboxylic acid; 2,2,2-trifluoroacetate] showed an EC50 of 929 nM.

`CCN(CC)CCC(NC(=O)c1cc2cc3c(nc2s1)CC[C@H](C(C)(C)C)C3)c1ccccc1` (stereo partly drawn) [Example 244, (6S)-6-tert-butyl-N-[3-(diethylamino)-1-phenylpropyl]-5,6,7,8-tetrahydrothieno[2,3-b]quinoline-2-carboxamide] had a half-maximal effective concentration (EC50) of 2200 nM. With `CC(C)(C)[C@H]1CCc2nc3sc(C(=O)N[C@H](CCN[C@@H]4C[C@@H](O)[C@@H](O)C4)c4ccc(-c5ccc(=O)[nH]c5)cc4)cc3cc2C1` (racemic) [Example 37, [rac-(3R,4S)-3,4-dihydroxycyclopentyl]-[rac-(3R)-3-[4-(6-oxo-1H-pyridin-3-yl)phenyl]-3-[[rac-(6S)-6-tert-butyl-5,6,7,8-tetrahydrothieno[2,3-b]quinoline-2-carbonyl]amino]propyl] ammonium;formate] the figure was 575 nM; with `CN(C)C1CN(C(=O)c2cccc([C@@H](CCN3CCC(O)CC3)NC(=O)c3nc4cc5c(nc4s3)CC[C@H](C(C)(C)C)C5)c2)C1` (racemic) [Example 148, rac-(7S)-7-tert-butyl-N-[rac-(1R)-1-[3-[3-(dimethylamino)azetidine-1-carbonyl]phenyl]-3-(4-hydroxy-1-piperidyl)propyl]-5,6,7,8-tetrahydrothiazolo[5,4-b]quinoline-2-carboxamide], 656 nM.

The compound `CC(C)(C)[C@H]1CCc2nc3sc(C(=O)N[C@H](CCN4CCC(O)CC4)c4cccc(C(=O)N5CC6(CCCNC6)C5)c4)nc3cc2C1` (racemic) [Example 131, rac-(7S)-7-tert-butyl-N-[rac-(1R)-1-[3-(2,8-diazaspiro[3.5]nonane-2-carbonyl)phenyl]-3-(4-hydroxy-1-piperidyl)propyl]-5,6,7,8-tetrahydrothiazolo[5,4-b]quinoline-2-carboxamide] gave an EC50 of 96.7 nM. `CC(C)(C)[C@H]1CCc2nc3sc(C(=O)N[C@H](CCN4CCC(O)CC4)c4ccc(N5CCC(O)CC5)nc4)nc3cc2C1` (racemic) [Example 189, rac-(7S)-7-tert-butyl-N-[rac-(1R)-3-(4-hydroxy-1-piperidyl)-1-[6-(4-hydroxy-1-piperidyl)-3-pyridyl]propyl]-5,6,7,8-tetrahydrothiazolo[5,4-b]quinoline-2-carboxamide] gave a 50% effective concentration (EC50) of 1380 nM. With `CC(C)(C)[C@H]1CCc2nc3sc(C(=O)N[C@H](CCN4CCC(O)CC4)c4ccc(-c5ccc(=O)[nH]c5)cc4)nc3cc2C1` (racemic) [Example 79, rac-(7S)-7-tert-butyl-N-[rac-(1R)-3-(4-hydroxypiperidin-1-ium-1-yl)-1-[4-(6-oxo-1H-pyridin-3-yl)phenyl]propyl]-5,6,7,8-tetrahydrothiazolo[5,4-b]quinoline-2-carboxamide; formate] the figure was 270 nM; with `CC(C)(C)[C@H]1CCc2nc3sc(C(=O)N[C@H](CCN4CCC(O)CC4)c4ccc(-c5ncc(O)cc5F)cc4)nc3cc2C1` (racemic) [Example 181, rac-(7S)-7-tert-butyl-N-[rac-(1R)-1-[4-(3-fluoro-5-hydroxy-2-pyridyl)phenyl]-3-(4-hydroxypiperidin-1-ium-1-yl)propyl]-5,6,7,8-tetrahydrothiazolo[5,4-b]quinoline-2-carboxamide; 2,2,2-trifluoroacetate], 1440 nM. As for `CC(C)(C)[C@H]1CCc2nc3sc(C(=O)N[C@H](CCN4CCC(C(=O)O)CC4)c4ccc(-c5cnc(O)c(F)c5)cc4)nc3cc2C1` [Example 224, sodium 1-((R)-3-((S)-7-(tert-butyl)-5,6,7,8-tetrahydrothiazolo[5,4-b]quinoline-2-carboxamido)-3-(4-(5-fluoro-6-hydroxypyridin-3-yl)phenyl)propyl)piperidine-4-carboxylate], it took 198 nM to reach a half-maximal effect (EC50). For the compound `CC(C)(C)[C@H]1CCc2nc3sc(C(=O)N[C@H](CCN4CCCCC4)c4ccc(-c5ccc(O)nc5)cc4)cc3cc2C1` (racemic) [Example 32, rac-(6S)-6-tert-butyl-N-[rac-(1R)-1-[4-(6-oxo-1H-pyridin-3-yl)phenyl]-3-piperidin-1-ium-1-yl-propyl]-5,6,7,8-tetrahydrothieno[2,3-b]quinoline-2-carboxamide;formate], it took 478 nM to reach a half-maximal effect (EC50). `CNCC[C@@H](NC(=O)c1cc2cc3c(nc2s1)CC[C@H](C(C)(C)C)C3)c1ccc(-c2ccc(=O)[nH]c2)cc1` (racemic) [Example 42, rac-(6S)-6-tert-butyl-N-[rac-(1R)-3-(methylamino)-1-[4-(6-oxo-1H-pyridin-3-yl)phenyl]propyl]-5,6,7,8-tetrahydrothieno[2,3-b]quinoline-2-carboxamide]: the response was half-maximal at 658 nM (EC50). In turn, `CN(CC[C@@H](NC(=O)c1nc2cc3c(nc2s1)CC[C@H](C(C)(C)C)C3)c1ccc(NS(=O)(=O)N(C)C)nc1)Cc1ccn[nH]1` (racemic) [Example 214, methyl-(1H-pyrazol-5-ylmethyl)-[rac-(3R)-3-[6-(dimethylsulfamoylamino)-3-pyridyl]-3-[rac-(7S)-7-tert-butyl-5,6,7,8-tetrahydrothiazolo[5,4-b]quinoline-2-carbonyl]amino]propyl]ammonium; 2,2,2-trifluoroacetate] returned an EC50 of 1240 nM. The result for `CN(C)CC[C@@H](NC(=O)c1cc2cc3c(nc2s1)CC[C@H](C(C)(C)C)C3)c1ccc(-c2ccc(=O)[nH]c2)cc1` (racemic) [Example 25, dimethyl-[rac-(3R)-3-[4-(6-oxo-1H-pyridin-3-yl)phenyl]-3-[{rac-(6S)-6-tert-butyl-5,6,7,8-tetrahydrothieno[2,3-b]quinoline-2-carbonyl]amino]propyl] ammonium;formate] reads 218 nM.
